From paper PMC8533149 (Biomolecules, 2021)

System: HIV-1 LTR-III G-quadruplex (FAM/TAMRA-labeled LTR-III)
Experiment: FRET melting assay, LTR-III G4
Assay type: binding
Conditions: Table S1 primary screening, ligand:ODN 50:1, singlicate
Summary of the method: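 Melting is followed by FAM fluorescence (ex 495/em 520 nm) while heating at 1 °C/min from 30 to 95 °C. Labelled ODN at 0.5 μM, pre-annealed in 10 mM Li cacodylate, 100 mM KCl, pH 7.4, mixed with ligand at 50:1 (25 μM), or 20:1 and 2:1 for titration. ΔTm is relative to the 0.25% DMSO buffer control.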

SMILES | LTR-III ΔTm [°C]
CC(C)CCC1=NC(=Cc2ccc(O)cc2)C(=O)N1C [GA 18] | -0.1
CC1=NC(=Cc2ccc(OCc3ccccc3)cc2)C(=O)N1C [X 7] | 0
CCN(CC)C(=O)Sc1ccc(C=C2N=C(c3ccccc3)N(C)C2=O)cc1 [M 2075] | 0.3
CCN(CC)c1ccc(C=C2N=C(C)N(CCCCO[Si](c3ccccc3)(c3ccccc3)C(C)(C)C)C2=O)cc1 [N 162] | 0.2
COc1ccc(C=C2N=C(C=C(O)c3cccs3)N(C)C2=O)cc1 [N 539.1] | 0
CCC(=O)NC(=Cc1c[nH]c2cccc(C)c12)C(=O)NC [M 1979] | -0.1
COc1ccc(O)c(C=C2N=C(C=Cc3cc(Br)c(O)c(Br)c3)N(C)C2=O)c1 [N 851B] | 1.2
O=C1NC(=S)SC1=Cc1ccc(O)c(C(=O)O)c1 [SAI 120] | 0.6
COc1cc(C=C2SC(=S)NC2=O)c(OC)cc1O [SAI 115] | -0.3
CNC(=O)c1onc(C(=O)OC(C)C)c1-c1ccccc1F [SA 331A] | -0.7
COc1ccc(N)cc1C=C1N=C(C)N(C)C1=O [ZS 62] | 0
CN1C(=O)C(=Cc2ccc(O)cc2O)N=C1C=Cc1cc(Br)c(O)c(Br)c1 [N 855] | 0.4
CC1=NC(=Cc2cc3c4c(c2)CCCN4CCC3)C(=O)N1C [X 4] | 1
CC1=NC(=C(N)c2ccccc2)C(=O)N1C [ZS 109] | -0.7
COc1ccc(C=C2N=C(Nc3ccc(Br)cc3)N(C)C2=O)cc1 [SA 158] | 0.2
CCN(CC)c1ccc(C=C2N=C(C)NC2=O)cc1 [M 1045] | 0.1
CC(=O)Oc1ccc(C=C2N=C(C=Cc3ccccc3)N(C)C2=O)cc1 [M 1009A] | 0.5
CC(=O)NC(=Cc1ccc([N+](=O)[O-])cc1)C(=O)NC1CCCCC1 [X 28] | -0.3
CC1=NC(=Cc2ccc([N+](=O)[O-])c(O)c2)C(=O)N1C [SV 52.7] | -0.2
CC(C)OC(=O)c1noc(C(=O)N2CCOCC2)c1-c1ccc(C(C)C)cc1 [SA 342A] | -0.3
COC(=O)c1noc(C(=O)NCc2ccccc2)c1-c1ccc(OC)cc1 [SA 561D] | -0.4
Cc1ccc(C(O)=CC2=NC(=Cc3ccc(O)cc3)C(=O)N2C)cc1 [N 154] | -0.1
O=C1NC(C=Cc2cc(Br)c(O)c(Br)c2)=NC1=Cc1ccc(O)cc1 [M 295] | -0.5
CNC(=O)C(=Cc1ccccc1)N=[N+]=[N-] [N 830b] | -0.2

SMILES | LTR-III ΔTm [°C]
CC1=NC(=Cc2cc(C(C)(C)C)c(O)c(C(C)(C)C)c2)C(=O)N1C [M 2273.1] | 0.2
CC(C)OC(=O)c1noc(C(=O)N2CCCC2)c1-c1ccc(N(C)C)cc1 [SA 332.2] | -0.4
COc1ccc(C=CC2=NC(=Cc3ccc([N+](=O)[O-])cc3)C(=O)N2C)cc1 [AI 119] | 1.4
CCN(CC)c1ccc(C=C2N=C(C)N(C)C2=O)cc1 [M 1661] | 0.4
CN1C(=O)C(=Cc2ccc(O)cc2)N=C1C=Cc1ccccc1O [ccA 15] | 0.5
COc1ccc(C=C2N=C(C)N(CCNC(=O)OC(C)(C)C)C2=O)cc1 [M 2022b] | 0
CC1=NC(=Cc2ccc(N3CCCC3)cc2)C(=O)N1C [N 704] | -0.2
CC(=O)NC(=Cc1ccccc1)C(=O)NO [SV 6] | 0
CN1C(=O)C(=Cc2ccc(O)cc2)N=C1C=Cc1ccc(N(C)C)cc1 [ccA 22] | 0.3
COc1cc(O)cc(OC)c1C=C1N=C(C)N(C)C1=O [N 976] | 0.5
CN1C(=O)C(=Cc2ccc(OCc3ccccc3)cc2)N=C1C(C)(C)C [X 20] | -0.2
CC1=NC(=Cc2ccc(O)cc2)C(=O)N1CCO [GA 12] | 0.3
CN1C(=O)C(=Cc2ccc(O[Si](c3ccccc3)(c3ccccc3)C(C)(C)C)cc2)N=C1c1ccccc1 [Amm 75] | -0.3
CCNc1ccc2cc(Br)ccc2c1 [N 576.2] | 0
CN1C(=O)C(=Cc2ccc(O)cc2)N=C1c1ccccc1 [M 750] | -0.2
CC1=NC(=Cc2ccccc2F)C(=O)N1C [SV 50.9] | -0.2
COc1cc(O)ccc1C=C1N=C2C=CC=CN2C1=O [N 1123] | 0.3
CC1=NC(=Cc2ccc(O)c(O)c2)C(=O)N1C [M 1583.7] | -1.4
O=C1NC(=S)SC1=Cc1ccc(O)c(Br)c1 [SAI 117] | -0.2
CN1C(=O)C(=Cc2cc(Br)c(O)c(Br)c2)N=C1C=Cc1ccncc1 [N 848.1] | -1.8
CC1=NC(=Cc2cc(F)c(O)c(F)c2)C(=O)N1C [M 2296] | -0.4
COc1cc(O)ccc1C=C1N=C(C(=Cc2ccncc2)c2ccccc2)N(C)C1=O [N 1142] | 0.1
CC1=NC(=Cc2ccccc2)C(=O)N1CC(N)=O [SA 152] | -0.3
CCOC(=O)CN1C(=O)C(=Cc2ccc(OC)cc2)N=C1C [SA 117] | -0.2

SMILES | LTR-III ΔTm [°C]
CC1=NC(=Cc2ccc[nH]2)C(=O)N1C [N 815] | -0.1
CNC(=O)C(N)C(O)c1ccc(OCc2ccccc2)cc1 (stereo not shown) [X 27] | -0.1
CC1=NC(=Cc2cccc3ccccc23)C(=O)N1C [SV 51.12] | 0.4
CC1=NC(=Cc2ccc(N3CCCCC3)cc2)C(=O)N1C [N 665] | -0.3
CN1C(=O)C(=Cc2ccc(O)cc2)N=C1Cc1ccccc1 [GFP-2-Bn] | -1.5
CC1=NC(=Cc2ccc(O[Si](c3ccccc3)(c3ccccc3)C(C)(C)C)c(O)c2)C(=O)N1C [M 1620] | 0.4
CCN(CC)c1ccc2c(C=CN(C)C)cc(=O)oc2c1 [N 582.1] | 0
CC1=NC(=Cc2ccc(N3CCC3)cc2)C(=O)N1C [N 710.12] | 0.1
COc1ccc(O)c(C=C2N=C(C)N(C)C2=O)c1 [M 2360] | -0.3
CN1C=NC(=Cc2ccc(O)cc2)C1=O [GA 02] | -0.4
CCN(CC)c1ccc(C=C2N=C(C=Cc3ccncc3)N(C)C2=O)cc1 [M 895] | 0.8
COC(=O)c1noc(C(=O)N2CCOCC2)c1-c1ccc(OC)cc1 [SA 561E] | -0.7
CC(C)OC(=O)c1noc(C(=O)N2CCOCC2)c1-c1cccc(C(F)(F)F)c1 [SA 344A] | -0.5
O=C(O)c1ccc(-c2ccccc2)cc1 [X 26] | -0.1
COc1cc(O)ccc1C=C1N=C(C=CN2CCCC2)N(C)C1=O [N 1118] | 3
CCCCN(CCCC)c1ccc(C=C2N=C(C)N(C)C2=O)cc1 [SA 33] | 0.2
CC1=NC(=Cc2cccs2)C(=O)N1C [M 1583.3] | 0.1
CNC(=O)c1onc(C(=O)OC)c1-c1ccc(OC)cc1 [SA 561A] | -0.3
O=C1/C(=C/c2ccncc2)N=C2C=CC=CN12 [N 817] | 0
COc1ccc(C=CC2=NC(=Cc3cc(OC)ccc3OC)C(=O)N2C)cc1 [AI 118] | -0.1
CC1=NC(=C(N)c2ccc(Br)cc2)C(=O)N1C [ZS 190] | -0.5
CCN(CC)c1ccc(/C=C2\N=C(C)N(C)C2=O)c(O)c1 [M 1933] | -0.3
